The values below come from patent US8642591B2, “Composition containing amidine derivatives or carboxamide derivatives and steroids, as a medicament” (priority 2006, dated 2014).

Counter-ions that a name gives are not always drawn. Like-named read-outs stand apart in the source and are kept apart here.

This test deals with Human Skeletal Cells (SKM). The test is described as follows: Protective effect on cell death induced by maitotoxin on human skeletal cells (SKM), WST-1 readout. The test is classed as cell-based. The note with it: maitotoxin 24 h. On the procedure: The principle of the test is the following: maitotoxin is a toxin which causes the opening of the calcium channels of cells. The resulting intra-cellular flow of calcium is at the origin of the death of the cell. During this process of cell death, a cysteine-dependent protease, calpain, is activated, and an abundance of free radicals is produced. The test consists of incubating the cells in the presence of the composition to be tested, in order to delay or inactivate cell death and thus determine the protective effect.
The myoblasts are seeded at 2500 cells per well in 96-well plates in a DMEM 10% FCS (foetal calf serum) culture medium supplemented with amphotericin B, human recombinant epidermal growth factor and dexamethasone. Three days after seeding, the cells have adhered to the base of the well, the differentiation of the cells to myotubes is induced by adding 100 μl of DMEM F12 medium containing 2% horse serum. After three more days, 100 μl of compound to be tested are placed at the bottom of the well. After incubation for one hour at 37° C. under an atmosphere of 5% CO2, the maitotoxin (MTX) (Wako, ref: 131-10731) is added to evaluate the protective effect (concentration-effect) of the compound to be tested on cell death.
After an incubation time of 24 h, the culture medium is replaced by a DMEM 10% FCS medium supplemented by WST-1. […] The cells are incubated for 1 hour in the presence of WST-1. Then the number of live cells is determined using a Perkin-Elmer Wallac Envision 2101 device by reading the absorbance at 450 nm. The concentration-effect of the products on the cell survival rate is then calculated.
The CE50 is deduced by linear regression: concentration with respect to the percentage of protection. The mathematical method used is the isobologram approach described in: “Drug synergism and dose-effect data analysis, Ronald J. Tallarida, Chapman & Hall/CRC, 2000”.

Turning to `CC(=O)OC1OCC[C@@H]1NC(=O)[C@H](CC(C)C)NC(=O)c1ccc2c(c1)Nc1ccccc1S2` (stereo partly drawn) [(3S)-3-{[N-(10H-phenothiazin-2-ylcarbonyl)-L-leucyl]amino}tetrahydrofuran-2-yl acetate], the EC50 (Homo sapiens, 24 h, read-out: EC50 μM After incubation for 24 h with the toxin, single substance (proportion 1), cell mortality rate induced by the toxin 97%) came to 29.1 µM. In the case of `CC(C)C[C@H](NC(=N)c1ccc2c(c1)Nc1ccccc1S2)C(=O)N[C@H]1CCOC1O` (stereo partly drawn) [Example 5, N^1-[(3S)-2-hydroxytetrahydrofuran-3-yl]-N^2-[imino(10H-phenothiazin-2-yl)methyl]-L-leucinamide hydroiodide], the concentration giving a half-maximal response (EC50) (Homo sapiens, 24 h, read-out: EC50 μM After incubation for 24 h with the toxin, single substance (proportion 1), cell mortality rate induced by the toxin 84%) is 6.26 µM. As for `CC(C)C[C@H](NC(=N)c1ccc2c(c1)Nc1ccccc1S2)C(=O)N[C@H]1CCOC1O` (stereo partly drawn) [Example 7, N^1-[(3S)-2-hydroxytetrahydrofuran-3-yl]-N^2-[imino(10H-phenothiazin-2-yl)methyl]-L-leucinamide hydrochloride], the EC50 (Homo sapiens, 24 h, read-out: EC50 μM After incubation for 24 h with the toxin, single substance (proportion 1), cell mortality rate induced by the toxin 96%) is 5.92 µM. For the molecule `C[C@H]1C[C@@H]2[C@H]([C@@H](O)C[C@@]3(C)[C@H]2CC[C@]3(O)C(=O)CO)[C@@]2(C)C=CC(=O)C=C12` [α-methylprednisolone], the EC50 (single substance (proportion 1), cell mortality rate induced by the toxin 84%, read-out: EC50 μM After incubation for 24 h with the toxin) turned out to be 87.6 µM; the EC50 (single substance (proportion 1), cell mortality rate induced by the toxin 96%, read-out: EC50 μM After incubation for 24 h with the toxin) was 169 µM; the EC50 (single substance (proportion 1), cell mortality rate induced by the toxin 97%, read-out: EC50 μM After incubation for 24 h with the toxin) is 107 µM.
